Literature values as cited in patent publication US8772346B2, “Pharmaceutical composition” (Torrent Pharmaceuticals Limited, priority 2005, dated 2014).
Like-named read-outs stand apart in the source and are kept apart here.

Conditions: HP-β-CD (10% w/v)

## CCN(CC)C(=O)/C(C#N)=C/c1cc(O)c(O)c([N+](=O)[O-])c1 [entacapone]
pH 3.0
  increase of aqueous solubility of entacapone by complexation with HP-β-CD: 12 fold
pH 5.0
  increase of aqueous solubility of entacapone by complexation with HP-β-CD: 85 fold
